Results from publication PMC11674187, “Inhibitory Effects of Cenobamate on Multiple Human Cardiac Ion Channels and Possible Arrhythmogenic Consequences” (Biomolecules, 2024).
Where “and” joins values, the source holds several entries; their conditions need not be identical. Equal entries are not always repeated. Where two headings read alike, the source gives them in different places.

Assays:
[1] = target: T1, hNav1.5 (Homo sapiens, UniProt Q14524); assay: Whole-cell patch-clamp on HEK293T cells, late INa (CiPA-like protocol with ATX-II); type: cell-based
T1 construct: host or cells: HEK293T
Method: Experiments were performed on HEK293T cell lines with persistent/inducible expression of different human cardiac ion channel isoforms: hNav1.5 and hKv7.1 + minK (Anaxon AG, Bern, Switzerland), hCav1.2 (α1c + β2 + α2δ1) (B’SYS GmbH, Witterswil, Switzerland), and hKv11.1 (hERG) (Cytocentrics Bioscience GmbH, Rostock, Germany). The cell lines were grown in standard conditions (37 °C, 5% CO2, 90% humidity) in DMEM:F12 medium (D8900, Sigma-Aldrich, Burlington, MA, USA) buffered with 15 mM HEPES, containing 3.15 g/L D-glucose and 0.055 g/L sodium pyruvate, supplemented with 1.2 g/L sodium bicarbonate, 10% fetal bovine serum (F2442, Sigma-Aldrich, Burlington, MA, USA), 2 mM L-glutamine (G7513, Sigma-Aldrich, Burlington, MA, USA), 1% penicillin–streptomycin (P4333, Sigma-Aldrich, Burlington, MA, USA), and with specific antibiotics for selection of transfected cells or induction of gene expression according to manufacturers’ instructions. The medium was changed every 2–3 days and the cells were passed weekly upon detachment with trypsin–EDTA solution. All cell culture media and solutions were sterile filtered with 0.22 μm polyvinylidene fluoride filters. Ncyte® vCardiomyocytes (Ncardia, Leiden, The Netherlands) were cultured in 24-well plates precoated with bovine fibronectin, following manufacturer’s instructions. For the experiments, cardiomyocytes were detached as described previously and plated on ϕ 10 mm glass coverslips, like the other cell lines.
Manual whole-cell patch-clamp experiments were performed at room temperature, with equipment as described in previous studies. Pipettes were pulled from Clark borosilicate glass capillaries with inner filament (GC150F-10, Harvard Apparatus, Holliston, MA, USA) and had typical resistances of 2–3 MΩ. Recordings were performed with a WPC-100 resistive feedback amplifier (ESF electronic, Göttingen, Germany) or an Axopatch 200B amplifier (Axon Instruments—Molecular Devices, San Jose, CA, USA) connected to a Digidata 1322A interface driven by the pClamp 8.2 Clampex module (Axon Instruments, part of Molecular Devices, San Jose, CA, USA). For different types of ion channel, we applied specific voltage-clamp protocols as follows: • - For hERG, a standard two-step activation protocol was used: holding at −70 mV, a 100 ms step at −50 mV used as current reference for measurements, a 2 s depolarizing step at +40 mV, followed by a 2 s step at −50 mV to elicit the peak hERG current by rapid recovery from inactivation, repeated sweeps at 10 s intervals, plus specific protocols to assess the voltage dependence of activation and inactivation, as described in Thomet et al., 2021 [11]. • - For hKv7.1 + minK, a general two-step activation protocol was used: holding at −110 mV, a 250 ms step at −80 mV with a brief (50 ms) step at −90 mV at the middle to monitor seal quality, a 3000 ms depolarizing step at +60 mV, followed by a 1000 ms step at −50 mV; repeated sweeps at 20 s intervals. • - For hCav1.2, a pharmacology protocol with holding at −80 mV, a first 100 ms step at −50 mV and a second 200 ms step at 0 mV, repeated sweeps at 20 s intervals with drug application after 5 sweeps if current levels were steady, plus an activation–inactivation protocol with holding at −80 mV, 1000 ms depolarizing steps from −80 to +50 mV in 10 mV increments, followed by 250 ms steps at +10 mV and a return to −80 mV; 14 sweeps at 20 s intervals. • - For hNav1.5, multiple voltage protocols were used, including the following: • - A standard pharmacology protocol with holding at −90 mV, a 20 ms step at −110 mV for seal monitoring, a 40 ms activation step at −10 mV, and repeated sweeps at 1 s intervals. […]

[2] = cited from earlier work
[3] = set-up: method as in PMID 33031714; conditions: adults with focal onset seizures; ref [2]; cited from earlier work

T1 sequence (Q14524 whole entry): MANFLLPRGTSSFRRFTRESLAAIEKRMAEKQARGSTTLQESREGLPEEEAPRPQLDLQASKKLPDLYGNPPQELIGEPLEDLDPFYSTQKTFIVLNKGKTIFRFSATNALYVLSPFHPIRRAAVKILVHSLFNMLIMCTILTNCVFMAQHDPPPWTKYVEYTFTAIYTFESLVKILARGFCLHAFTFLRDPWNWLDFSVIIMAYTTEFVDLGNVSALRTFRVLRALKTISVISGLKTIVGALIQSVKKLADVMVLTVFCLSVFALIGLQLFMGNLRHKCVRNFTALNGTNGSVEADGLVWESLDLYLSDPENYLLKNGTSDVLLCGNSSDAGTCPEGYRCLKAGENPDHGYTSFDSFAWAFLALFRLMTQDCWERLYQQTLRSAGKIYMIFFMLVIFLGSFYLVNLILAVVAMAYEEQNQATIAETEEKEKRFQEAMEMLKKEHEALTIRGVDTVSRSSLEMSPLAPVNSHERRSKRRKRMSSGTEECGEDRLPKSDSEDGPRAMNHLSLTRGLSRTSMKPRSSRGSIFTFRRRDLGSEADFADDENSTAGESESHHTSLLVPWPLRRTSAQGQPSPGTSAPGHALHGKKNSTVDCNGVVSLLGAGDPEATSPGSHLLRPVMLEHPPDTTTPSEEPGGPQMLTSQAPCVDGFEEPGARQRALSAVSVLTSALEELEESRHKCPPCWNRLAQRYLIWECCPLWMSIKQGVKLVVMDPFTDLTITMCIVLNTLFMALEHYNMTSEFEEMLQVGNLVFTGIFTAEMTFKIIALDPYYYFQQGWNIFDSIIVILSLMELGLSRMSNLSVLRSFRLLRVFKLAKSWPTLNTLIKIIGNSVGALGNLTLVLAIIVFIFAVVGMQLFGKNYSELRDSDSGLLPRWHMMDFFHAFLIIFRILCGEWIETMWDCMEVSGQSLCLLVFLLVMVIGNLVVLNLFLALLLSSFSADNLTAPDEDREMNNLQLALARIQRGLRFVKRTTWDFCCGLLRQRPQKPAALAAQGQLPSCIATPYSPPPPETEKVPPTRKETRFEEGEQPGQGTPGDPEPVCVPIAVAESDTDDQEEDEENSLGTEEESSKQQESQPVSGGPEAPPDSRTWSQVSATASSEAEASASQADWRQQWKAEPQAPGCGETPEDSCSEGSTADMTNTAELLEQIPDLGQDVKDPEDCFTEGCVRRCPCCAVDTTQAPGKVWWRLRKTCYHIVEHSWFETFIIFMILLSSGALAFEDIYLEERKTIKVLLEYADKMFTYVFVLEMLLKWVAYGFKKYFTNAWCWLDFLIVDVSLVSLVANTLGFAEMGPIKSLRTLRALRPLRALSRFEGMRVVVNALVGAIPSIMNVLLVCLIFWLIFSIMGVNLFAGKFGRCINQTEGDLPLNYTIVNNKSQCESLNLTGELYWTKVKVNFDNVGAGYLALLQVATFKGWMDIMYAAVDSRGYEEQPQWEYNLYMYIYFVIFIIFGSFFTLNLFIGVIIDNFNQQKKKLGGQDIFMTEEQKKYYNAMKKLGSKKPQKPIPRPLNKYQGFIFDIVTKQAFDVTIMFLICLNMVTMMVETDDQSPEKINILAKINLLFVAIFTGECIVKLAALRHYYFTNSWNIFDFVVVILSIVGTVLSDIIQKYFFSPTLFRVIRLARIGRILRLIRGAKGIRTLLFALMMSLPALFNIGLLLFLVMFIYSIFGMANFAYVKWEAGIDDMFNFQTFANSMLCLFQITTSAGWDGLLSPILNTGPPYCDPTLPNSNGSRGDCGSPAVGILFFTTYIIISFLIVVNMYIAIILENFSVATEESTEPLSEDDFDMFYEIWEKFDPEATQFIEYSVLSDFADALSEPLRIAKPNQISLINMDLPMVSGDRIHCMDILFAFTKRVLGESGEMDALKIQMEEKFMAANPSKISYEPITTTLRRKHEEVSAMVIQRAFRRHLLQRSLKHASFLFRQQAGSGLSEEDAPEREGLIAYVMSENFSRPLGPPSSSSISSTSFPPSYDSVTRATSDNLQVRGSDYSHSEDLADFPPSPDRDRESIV

**Q.** What does the source list for `NC(=O)O[C@@H](Cn1ncnn1)c1ccccc1Cl` [cenobamate]?
**A.** inhibition at 1 µM ([1]; HEK-293T, cenobamate 1 µM, end of step at 0 mV, read-out: % INa inhibition (late), mean (Table S3)): 5.58%; inhibition at 10 µM ([1]; HEK-293T, cenobamate 10 µM, read-out: % INa inhibition (late), mean (Table S3)): 25.4%; inhibition at 10 µM ([1]; HEK-293T, cenobamate 10 µM, read-out: % INa inhibition (late), single experiments (Table S3)): 25.1%; inhibition at 40 µM ([1]; HEK-293T, cenobamate 40 µM, read-out: % INa inhibition (late), mean (Table S3)): 49.3%; inhibition at 40 µM ([1]; HEK-293T, cenobamate 40 µM, read-out: % INa inhibition (late), single experiments (Table S3)): 47.7%; inhibition at 100 µM ([1]; HEK-293T, cenobamate 100 µM, read-out: % INa inhibition (late), mean (Table S3)): 79.5%; inhibition at 100 µM ([1]; HEK-293T, cenobamate 100 µM, read-out: % INa inhibition (late), single experiments (Table S3)): 80.1%; inhibition at 200 µM ([1]; HEK-293T, cenobamate 200 µM, read-out: % INa inhibition (late), mean (Table S3)): 94.4%; inhibition at 200 µM ([1]; HEK-293T, cenobamate 200 µM, read-out: % INa inhibition (late), single experiments (Table S3)): 96.7%; IC50 ([1]; INaLIC50 (model script), value entered in C++ script): 46.5 µM; IC50 ([1]; apparent IC50 for late INa inhibition, ATX-II 20 nM or 100 nM, nH = 1): 46.5 µM; % INa inhibition (late), single experiments (Table S3) ([1]; cenobamate 1 µM): 9.80% and 4.35% and 2.59%; % INa inhibition (late), single experiments (Table S3) ([1]; cenobamate 10 µM): 27.99% and 16.75% and 31.85%; % INa inhibition (late), single experiments (Table S3) ([1]; cenobamate 40 µM): 42.71% and 49.53% and 57.45%; % INa inhibition (late), single experiments (Table S3) ([1]; cenobamate 100 µM): 91.98% and 72.79% and 79.43% and 73.06%; % INa inhibition (late), single experiments (Table S3) ([1]; cenobamate 200 µM): 94.40% and 94.64% and 86.94% and 99.56%; protein binding ([2]; human, ref [5] p.10): 61.0%; average binding to plasma proteins ([2]; study YKP3089C018, ref [5] p. 13): ~ 60% and 60%; reduction in monthly seizure frequency [3]: up to 55%; seizure-free rates [3]: up to 28%
